From US20240294551A1 (AMGEN INC., priority 2022, published 2024)

Columns and labels:
[1] = target: GDP-bound KRAS protein (aa 1-169), containing both G12D and C118A amino acid substitutions (Homo sapiens (Human), UniProt P01116, C118A/G12D); test: KRAS G12D Coupled Nucleotide Exchange Assay; format: biochemical; conditions: read-out: KRAS G12D Coupled Exchange IC50
[2] = target: His-tagged KRAS G12D protein (Homo sapiens (Human), UniProt P01116, G12D); test: KRAS G12D TR-FRET Assay; format: binding; conditions: read-out: KRAS G12D Binding IC50
Sequence of His-tagged KRAS G12D protein (P01116 other isoform, or with tags, fused parts or gaps G12D): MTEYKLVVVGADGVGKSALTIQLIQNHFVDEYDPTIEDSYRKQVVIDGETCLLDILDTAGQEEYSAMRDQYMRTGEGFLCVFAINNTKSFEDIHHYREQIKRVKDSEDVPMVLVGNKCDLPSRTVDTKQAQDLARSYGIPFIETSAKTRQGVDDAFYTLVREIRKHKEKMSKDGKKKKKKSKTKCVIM
How it was run: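 His-tagged KRAS G12D (diluted to 20 nM in pH 7.4 HEPES buffer with 10 mM MgCl2 and 10 μM GDP) was preincubated with titrated compound for 30 min at room temperature. Biotinylated KRPep-2d peptide (diluted to 20 nM) was then added for 1 h, and displacement was monitored by TR-FRET.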

Sequence of GDP-bound KRAS protein (aa 1-169), containing both G12D and C118A amino acid substitutions (P01116 other isoform, or with tags, fused parts or gaps G12D/C118A): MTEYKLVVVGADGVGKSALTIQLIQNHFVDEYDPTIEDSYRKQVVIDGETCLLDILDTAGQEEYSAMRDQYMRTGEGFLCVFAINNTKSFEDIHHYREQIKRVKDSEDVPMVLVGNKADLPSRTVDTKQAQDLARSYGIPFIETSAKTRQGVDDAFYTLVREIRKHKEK

## Cc1cc2[nH]ncc2c2c1CCCCO[C@@H](C)[C@H]1CN(CCO1)c1nc(OC[C@@]34CCCN3C[C@H](F)C4)nc3c(F)c-2ncc13 [Example 242, (16S,17R)-30-fluoro-24-(((2R,7aS)-2-fluorotetrahydro-1H-pyrrolo[1,2-a]pyrrol-7a(5H)-yl)methoxy)-9,16-dimethyl-15,18-dioxa-5,6,21,23,25,29-hexaazahexacyclo[24.3.1.1~17,21~.0~2,10~.0~3,7~.0~22,27~]hentriaconta-1(30),2,4,7,9,22,24,26,28-nonaene]
[1]
  IC50: 1.05 µM
[2]
  IC50: 1.14 µM

## Cc1cc2[nH]ncc2c2c1CCCCO[C@H](C)[C@@H]1CN(CCO1)c1nc(OC[C@@]34CCCN3C[C@H](F)C4)nc3c(F)c-2ncc13 [Example 243, (16R,17S)-30-fluoro-24-(((2R,7aS)-2-fluorotetrahydro-1H-pyrrolo[1,2-a]pyrrol-7a(5H)-yl)methoxy)-9,16-dimethyl-15,18-dioxa-5,6,21,23,25,29-hexaazahexacyclo[24.3.1.1~17,21~.0~2,10~.0~3,7~.0~22,27~]hentriaconta-1(30),2,4,7,9,22,24,26,28-nonaene]
[1]
  IC50: 4.07 µM
[2]
  IC50: 4.48 µM

## Cc1cc2[nH]ncc2c2c1CCCCO[C@@H](C)[C@@H]1CN(CCO1)c1nc(OC[C@@]34CCCN3C[C@H](F)C4)nc3c(F)c-2ncc13 [Example 244, (16S,17S)-30-fluoro-24-(((2R,7aS)-2-fluorotetrahydro-1H-pyrrolo[1,2-a]pyrrol-7a(5H)-yl)methoxy)-9,16-dimethyl-15,18-dioxa-5,6,21,23,25,29-hexaazahexacyclo[24.3.1.1~17,21~.0~2,10~.0~3,7~.0~22,27~]hentriaconta-1(30),2,4,7,9,22,24,26,28-nonaene]
[1]
  IC50: 0.03 µM
[2]
  IC50: 0.027 µM

## Fc1c2ncc3c(nc(OC[C@@]45CCCN4C[C@H](F)C5)nc13)N1CCC[C@@H](C1)c1coc(n1)CCCc1c(Cl)cc3[nH]ncc3c1-2 [Example 245, (18S)-9-chloro-31-fluoro-25-(((2R,7aS)-2-fluorotetrahydro-1H-pyrrolo[1,2-a]pyrrol-7a(5H)-yl)methoxy)-15-oxa-5,6,22,24,26,30,33-heptaazaheptacyclo[25.3.1.1~14,17~.1~18,22~.0~2,10~.0~3,7~.0~23,28~]tritriaconta-1(31),2,4,7,9,14(33),16,23,25,27,29-undecaene]
[1]
  IC50: 0.344 µM
[2]
  IC50: 0.583 µM

## Fc1c2ncc3c(nc(OC[C@@]45CCCN4C[C@H](F)C5)nc13)N1CCC[C@H](C1)Oc1nccc(n1)CCc1c(Cl)cc3[nH]ncc3c1-2 [Example 257, (19R)-9-chloro-32-fluoro-26-(((2R,7aS)-2-fluorotetrahydro-1H-pyrrolo[1,2-a]pyrrol-7a(5H)-yl)methoxy)-18-oxa-5,6,16,23,25,27,31,34-octaazaheptacyclo[26.3.1.1~13,17~.1~19,23~.0~2,10~.0~3,7~.0~24,29~]tetratriaconta-1(32),2,4,7,9,13(34),14,16,24,26,28,30-dodecaene]
[1]
  IC50: 0.178 µM
[2]
  IC50: 0.262 µM

## CN1C(=O)COCC[C@H]2CCc3cc4[nH]ncc4c(c32)-c2ncc3c(nc(OC[C@@]45CCCN4C[C@H](F)C5)nc3c2F)N2CCC[C@@H]1C2 [Example 278, (15R,22R)-34-fluoro-8-(((2R,7aS)-2-fluorotetrahydro-1H-pyrrolo[1,2-a]pyrrol-7a(5H)-yl)methoxy)-16-methyl-19-oxa-3,7,9,11,16,28,29-heptaazaheptacyclo[20.9.1.1~2,6~.1~11,15~.0~5,10~.0~25,32~.0~27,31~]tetratriaconta-1(31),2(34),3,5,7,9,25(32),26,29-nonaen-17-one]
[1]
  IC50: 5.9 µM
[2]
  IC50: 19.3 µM

## CN1C(=O)COCC[C@@H]2CCc3cc4[nH]ncc4c(c32)-c2ncc3c(nc(OC[C@@]45CCCN4C[C@H](F)C5)nc3c2F)N2CCC[C@@H]1C2 [Example 279, (15R,22S)-34-fluoro-8-(((2R,7aS)-2-fluorotetrahydro-1H-pyrrolo[1,2-a]pyrrol-7a(5H)-yl)methoxy)-16-methyl-19-oxa-3,7,9,11,16,28,29-heptaazaheptacyclo[20.9.1.1~2,6~.1~11,15~.0~5,10~.0~25,32~.0~27,31~]tetratriaconta-1(31),2(34),3,5,7,9,25(32),26,29-nonaen-17-one]
[1]
  IC50: 0.071 µM
[2]
  IC50: 0.333 µM

## O=C1N[C@H]2C[C@@H](O)CN(C2)c2nc(OC[C@@]34CCCN3C[C@H](F)C4)nc3c(F)c(ncc23)-c2c(c(Cl)cc3[nH]ncc23)CCCO1 [Example 285, (17S,19R)-9-chloro-30-fluoro-24-(((2R,7aS)-2-fluorotetrahydro-1H-pyrrolo[1,2-a]pyrrol-7a(5H)-yl)methoxy)-19-hydroxy-14-oxa-5,6,16,21,23,25,29-heptaazahexacyclo[24.3.1.1~17,21~.0~2,10~.0~3,7~.0~22,27~]hentriaconta-1(30),2,4,7,9,22,24,26,28-nonaen-15-one]
[1]
  IC50: 0.61 µM
[2]
  IC50: 1.91 µM

## CN1C(=O)OCCCc2c(Cl)cc3[nH]ncc3c2-c2ncc3c(nc(OC[C@@]45CCCN4C[C@H](F)C5)nc3c2F)N2C[C@H](O)C[C@H]1C2 [Example 287, (17S,19R)-9-chloro-30-fluoro-24-(((2R,7aS)-2-fluorotetrahydro-1H-pyrrolo[1,2-a]pyrrol-7a(5H)-yl)methoxy)-19-hydroxy-16-methyl-14-oxa-5,6,16,21,23,25,29-heptaazahexacyclo[24.3.1.1~17,21~.0~2,10~.0~3,7~.0~22,27~]hentriaconta-1(30),2,4,7,9,22,24,26,28-nonaen-15-one]
[1]
  IC50: 0.376 µM
[2]
  IC50: 1.23 µM

## Cc1cc2[nH]ncc2c2c1CCCOC(=O)N[C@@]1(C)CCCCN(C1)c1nc(OC[C@@]34CCCN3C[C@H](F)C4)nc3c(F)c-2ncc13 [Example 293, (26S)-32-fluoro-4-(((2R,7aS)-2-fluorotetrahydro-1H-pyrrolo[1,2-a]pyrrol-7a(5H)-yl)methoxy)-18,26-dimethyl-23-oxa-1,3,5,9,14,15,25-heptaazahexacyclo[24.4.1.1~6,10~.0~2,7~.0~11,19~.0~12,16~]dotriaconta-2,4,6(32),7,9,11,13,16,18-nonaen-24-one]
[1]
  IC50: 16.4 µM
[2]
  IC50: 50 µM

## Fc1c2ncc3c(nc(OC[C@@]45CCCN4C[C@H](F)C5)nc13)N1CCCC[C@@H](C1)c1cnn(n1)CCCc1c(Cl)cc3[nH]ncc3c1-2 [Example 295, (1S)-10-chloro-33-fluoro-24-(((2R,7aS)-2-fluorotetrahydro-1H-pyrrolo[1,2-a]pyrrol-7a(5H)-yl)methoxy)-4,5,13,14,19,23,25,27,34-nonaazaheptacyclo[25.4.1.1~2,5~.1~18,22~.0~9,17~.0~12,16~.0~21,26~]tetratriaconta-2(34),3,9,11,14,16,18(33),19,21,23,25-undecaene]
[1]
  IC50: 1.08 µM
[2]
  IC50: 2.25 µM

## Fc1c2ncc3c(nc(OC[C@@]45CCCN4C[C@H](F)C5)nc13)N1CCOC[C@@H](C1)c1cnn(n1)CCCc1c(Cl)cc3[nH]ncc3c1-2 [Example 297, (1S)-10-chloro-33-fluoro-24-(((2R,7aS)-2-fluorotetrahydro-1H-pyrrolo[1,2-a]pyrrol-7a(5H)-yl)methoxy)-30-oxa-4,5,13,14,19,23,25,27,34-nonaazaheptacyclo[25.4.1.1~2,5~.1~18,22~.0~9,17~.0~12,16~.0~21,26~]tetratriaconta-2(34),3,9,11,14,16,18(33),19,21,23,25-undecaene]
[1]
  IC50: 5.98 µM
[2]
  IC50: 8.07 µM

## O=C1N[C@@H]2CCCCN(C2)c2nc(OC[C@@]34CCCN3C[C@H](F)C4)nc3c(F)c(ncc23)-c2c3c(cc4[nH]ncc24)CC[C@@H]3CCO1 [Example 302, (16R,22R)-34-fluoro-8-(((2R,7aS)-2-fluorotetrahydro-1H-pyrrolo[1,2-a]pyrrol-7a(5H)-yl)methoxy)-19-oxa-3,7,9,11,17,28,29-heptaazaheptacyclo[20.9.1.1~2,6~.1~11,16~.0~5,10~.0~25,32~.0~27,31~]tetratriaconta-1(31),2(34),3,5,7,9,25(32),26,29-nonaen-18-one]
[1]
  IC50: 0.831 µM
[2]
  IC50: 1.27 µM

## CN(C)CC1(COc2nc3c4cc(F)c(c(F)c4n2)-c2c(c(Cl)cc4[nH]ncc24)CCCOC(=O)O[C@@H]2COCCN3C2)CC1 [Example 306, m-(26S)-18-chloro-4-((1-((dimethylamino)methyl)cyclopropyl)methoxy)-9,32-difluoro-23,25,28-trioxa-1,3,5,14,15-pentaazahexacyclo[24.4.1.1~6,10~.0~2,7~.0~11,19~.0~12,16~]dotriaconta-2,4,6,8,10(32),11,13,16,18-nonaen-24-one]
[1]
  IC50: 0.45 µM
[2]
  IC50: 0.695 µM

## O=C1OCCCc2c(Cl)cc3[nH]ncc3c2-c2ncc3c(nc(OC[C@@]45CCCN4C[C@H](F)C5)nc3c2F)N2CCOC[C@@](CF)(C2)O1 [Example 310, (26R)-18-chloro-32-fluoro-26-(fluoromethyl)-4-(((2R,7aS)-2-fluorotetrahydro-1H-pyrrolo[1,2-a]pyrrol-7a(5H)-yl)methoxy)-23,25,28-trioxa-1,3,5,9,14,15-hexaazahexacyclo[24.4.1.1~6,10~.0~2,7~.0~11,19~.0~12,16~]dotriaconta-2,4,6(32),7,9,11,13,16,18-nonaen-24-one]
[1]
  IC50: 1.49 µM
[2]
  IC50: 2.27 µM

## O=C1OCCc2c(Cl)cc3[nH]ncc3c2-c2ncc3c(nc(OC[C@@]45CCCN4C[C@H](F)C5)nc3c2F)N2CCOC[C@]3(C2)C[C@@H](C3)O1 [Example 317, (1S,3S)-10-chloro-33-fluoro-24-(((2R,7aS)-2-fluorotetrahydro-1H-pyrrolo[1,2-a]pyrrol-7a(5H)-yl)methoxy)-4,6,30-trioxa-13,14,19,23,25,27-hexaazaheptacyclo[25.4.1.1~1,3~.1~18,22~.0~9,17~.0~12,16~.0~21,26~]tetratriaconta-9,11,14,16,18(33),19,21,23,25-nonaen-5-one]
[1]
  IC50: 0.035 µM
[2]
  IC50: 0.05 µM
